{"source": "patent US10934346B2", "about": "“Modified T cell comprising a polynucleotide encoding an inducible stimulating molecule comprising MyD88, CD40 and FKBP12” (priority 2014, dated 2021)", "key": {"B16-F10 melanoma cells": {"test_system": "B16-F10 melanoma cells", "experiment": "IL-6 ELISA of adenovirus-transduced B16-F10 melanoma cells with AP1903", "format": "cell-based", "procedure": "Adenoviruses were added at 1000, 2000, 4000, 8000 and 16000 virus/cell ratio and cells were incubated for 24 hours. Then, 100 nM of AP1903 was added to all the wells, and the following day the cells and culture supernatants were harvested. A. Cells were labeled with anti-human PSMA antibody, LNI-17, (Biolegend, San Diego, Calif.) and PSMA expression was analyzed by flow cytometry. Represented is the percentage of PSMA^+ cells when compared to non-transduced cells. B. IL-6 was evaluated from the culture supernatants by ELISA (e-Bioscience, San Diego, Calif.). FIG. 28 provides the results of the assay at a different multiplicity of infection and plating concentration. B16 melanomas were cultured at 50,000 cells/ml/well in 24-well plates. Adenoviruses were added at 6000, 12000, 18000, 24000 and 30000 virus/cell ratio and cells were incubated for 24 hours. Then, 100 nM of AP1903 was added to all the wells, and the following day the cells and culture supernatants were harvested. A. Cells were labeled with anti-human PSMA antibody, LNI-17, (Biolegend, San Diego, Calif.) and PSMA expression was analyzed by flow cytometry. Represented is the percentage of PSMA^+ cells when compared to non-transduced cells. B. IL-6 was evaluated from the culture supernatants by ELISA (e-Bioscience, San Diego, Calif.). […] IL-6 was evaluated from the culture supernatants by ELISA (e-Bioscience, San Diego, Calif.)"}, "primary T cells": {"test_system": "primary T cells", "experiment": "Activation of primary T cells with iMyD88, iCD40 or iMC after AP1903 (cytokine ELISA)", "conditions": "iMC", "quoted_text": "To examine whether MyD88, CD40 or both molecules should be included as endodomains in potential chimeric antigen receptor constructs, four distinct vectors were designed containing the AP1903-binding domains only (Fv′Fv), or genetically fused with MyD88 (iMyD88), CD40 (iCD40) or with both MyD88 and CD40 (iMC) (FIG. 41a). […] The ability of iMyD88, iCD40 or iMC to activate T cells following exposure to AP1903 by measuring IFN-γ and IL-6 production by ELISA was then assayed.\nA set of experiments was performed to examine whether MyD88, CD40 or both components were required for optimum T cell stimulation using the iMC molecule."}, "cells": {"test_system": "cells", "experiment": "Amount of AP1903 needed in vitro for effective signaling of cells", "format": "cell-based", "procedure": "The fixed dose of AP1903 for injection used, for example, may be 0.4 mg/kg intravenously infused over 2 hours. The amount of AP1903 needed in vitro for effective signaling of cells is about 10-100 nM (MW: 1412 Da). This equates to 14-140 μg/L or ˜0.014-0.14 mg/kg ([…]). The dosage may vary according to the application, and may, in certain examples, be more in the range of 0.1-10 nM, or in the range of 50-150 nM, 10-200 nM, 75-125 nM, 100-500 nM, 100-600 nM, 100-700 nM, 100-800 nM, or 100-900 nM. Doses up to 1 mg/kg were well-tolerated in the Phase I study of AP1903 described above."}, "Capan-1-GFP tumor cells": {"test_system": "Capan-1-GFP tumor cells", "experiment": "Coculture of CAR/iMC T cells with Capan-1-GFP tumor cells", "conditions": "10 nM rimiducid, PSCA.ζ CAR and iMC T cells, 7 days", "quoted_text": "FIG. 2C) Non-transduced and PSCA.ζ CAR T cells modified with either FKBP or iMC were cocultured with Capan-1-GFP tumor cells at a 1:1 T cell to tumor cell ratio with and without 10 nM rimiducid. Tumor cell and T cell frequency were assessed after 7 days by flow cytometry. Tumor cell frequency was assessed by flow cytometry by measuring CD3^−GFP^+ tumor cells by SSC/GFP gating. Enrichment of T cells coexpressing iMC and CAR were assessed in coculture assays by flow cytometry by measuring CD19-PE and anti-CAR-APC frequency, respectively. FIG. 2D) T cells were subsequently assessed for CD25 expression and measured for T cell proliferation (FIG. 2E) using flow cytometry and cell enumeration.\nFIG. 12B) Non-transduced T cells and T cells transduced with FKBP^+PSCA.ζ, FKBP^+PSCA.28.ζ) or iMC^+PSCA.ζ were cocultured with Capan-1-GFP tumor cells at a 1:1 effector:target ratio for 7 days and analyzed for residual tumor cells (CD3^−GFP^+) by flow cytometry.\nCoculture experiment. […] After 7 days, all residual cells were collected by trypsinization, counted and stained with CD3, CD19 and Fc-specific antibodies and analyzed by flow cytometry. […]"}, "[1]": {"test_system": "JNK, Akt, RelA, ERK and p38 MAPK", "experiment": "Phosphorylation of downstream signaling molecules (Milliplex MAP assay, immunoblotting)", "format": "cell-based, human", "conditions": "10 nM rimiducid, iMC T cells", "procedure": "Immunoblotting. Primary human T cells transduced with either SFG-FKBP-2A-ΔCD19 or SFG-iMC-2A-ΔCD19 (4×10^6 per point) were cultured for the indicated time points in a 37° C. water bath with either 10 nM rimiducid, 250 nM each PMA and ionomycin, or media alone. Media as removed by aspiration after centrifugation at 6000 rpm for 2 min at 4° C. Cytoplasmic extracts were prepared by lysis in 100 μl radioimmuno-precipitation assay buffer (50 mM Tris, 150 mM NaCl, 1% NP40, 2 mM EDTA, 0.1% SDS, 0.25% sodium deoxycholate) containing 1×MS-SAFE (Roche). Lysates were incubated on ice for 10 min and cytoplasmic fractions were cleared by centrifugation at 11,000 rpm for 20 min at 4° C. […] Bound Abs were detected by HRP-conjugated goat-anti-rabbit IgG Ab (Pierce), followed by ECL (Pierce) and detection on a Gel Logic imaging system (Carestream). […]\nPhosphorylated epitopes were detected in Assay Buffer 2 (MILLIPLEX MAP kit) with antibodies specific for p-RelA(S536), p-Akt(S473), p-p38(T180/Y182), p-JNK(T183/Y185), p-ERK1/2(T202/Y204) (custom MILLIPLEX Magnetic Bead MAPMATE kit; Millipore) or GAPDH as a control for total protein content. Fold increase in phosphorylation was calculated by net MFI of rimiducid treatment at a given time point divided by the net MFI of the corresponding non-stimulated time point. […]"}}}
{"smiles": "CC[C@H](C(=O)N1CCCC[C@H]1C(=O)O[C@H](CCc1ccc(OC)c(OC)c1)c1cccc(OCC(=O)NCCNC(=O)COc2cccc([C@@H](CCc3ccc(OC)c(OC)c3)OC(=O)[C@@H]3CCCCN3C(=O)[C@@H](CC)c3cc(OC)c(OC)c(OC)c3)c2)c1)c1cc(OC)c(OC)c(OC)c1", "note": "(relative stereo) [rimiducid, 2-Piperidinecarboxylic acid, 1-[(2S)-1-oxo-2-(3,4,5-trimethoxyphenyl)butyl]-, 1,2-ethanediylbis [imino(2-oxo-2,1-ethanediyl)oxy-3,1-phenylene[(1R)-3-(3,4-Dimethoxyphenyl)propylidene]] ester, [2S-[1(R*),2R*[S*[S*[1(R*),2R*]]]]]-(9Cl)]", "values": [{"measurement": "IL-6 production", "setting": "B16-F10 melanoma cells; 100 nM AP1903", "result": "response to AP1903 by producing IL-6"}, {"measurement": "IL-6 production without ligand", "setting": "B16-F10 melanoma cells; presence and absence of AP1903", "result": "transduced cells produce IL-6 without the addition of AP1903"}, {"measurement": "IL-1 secretion", "setting": "primary T cells", "result": "IL-1a and β are secreted"}, {"measurement": "amount needed in vitro for effective signaling of cells", "setting": "cells", "result": "10 to 100", "unit": "nM"}, {"measurement": "amount needed for effective signaling, converted", "setting": "cells; MW: 1412 Da", "result": "14 to 140", "unit": "µg/L"}, {"measurement": "Capan-1-GFP tumor cell elimination", "setting": "Capan-1-GFP tumor cells", "result": "further enhanced Capan-1-GFP elimination"}, {"measurement": "onset of signaling after exposure", "setting": "[1]", "result": "≤ 15", "unit": "min"}, {"measurement": "phosphorylation of signaling pathways", "setting": "[1]", "result": "each of these signaling pathways show increased phosphorylation in T cells, with MAPK and JNK showing the greatest rimiducid-dependent activation"}]}
